# In article PMC12827894, “Structure-guided design of picomolar-level macrocyclic TRPC5 channel inhibitors with antidepressant activity” (Acta Pharmaceutica Sinica. B, 2025):
# Read-outs that look alike come from different tables or passages of the source.
# Assays:
# 5-HT2A = molecular target: T1, 5-HT2A (Homo sapiens, UniProt P28223); experiment: cell-based; assay type: cell-based
# T1 construct: purchased ICE Bioscience ICESTP SafetyOne44 Panel
# nAChRα4β2 = molecular target: T2, nAChRα4β2 (Homo sapiens, UniProt P17787+P43681); experiment: SafetyOne44 panel ion channels: nAChRα4β2; assay type: cell-based; conditions: 5 μmol/L
# T2 construct: ICE Bioscience ICESTP SafetyOne44 Panel
# T2 sequence (P43681 29-627 limits assumed): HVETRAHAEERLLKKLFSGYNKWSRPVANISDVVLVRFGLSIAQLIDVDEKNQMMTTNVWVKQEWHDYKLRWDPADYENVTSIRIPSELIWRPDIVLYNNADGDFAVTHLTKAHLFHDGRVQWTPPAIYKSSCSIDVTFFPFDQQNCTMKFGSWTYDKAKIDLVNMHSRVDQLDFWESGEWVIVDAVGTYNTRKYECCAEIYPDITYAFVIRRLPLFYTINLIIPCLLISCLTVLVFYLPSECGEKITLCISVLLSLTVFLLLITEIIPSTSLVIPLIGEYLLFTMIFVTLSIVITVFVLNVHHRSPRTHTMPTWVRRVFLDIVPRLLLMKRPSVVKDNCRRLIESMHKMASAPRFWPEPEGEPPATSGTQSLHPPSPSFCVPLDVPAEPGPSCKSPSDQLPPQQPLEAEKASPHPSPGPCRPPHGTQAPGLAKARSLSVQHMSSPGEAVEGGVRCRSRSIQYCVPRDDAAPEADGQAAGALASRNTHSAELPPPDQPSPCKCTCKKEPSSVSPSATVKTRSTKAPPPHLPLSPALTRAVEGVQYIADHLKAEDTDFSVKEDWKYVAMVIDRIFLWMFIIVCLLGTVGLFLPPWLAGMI
# T2 sequence (P17787 26-502): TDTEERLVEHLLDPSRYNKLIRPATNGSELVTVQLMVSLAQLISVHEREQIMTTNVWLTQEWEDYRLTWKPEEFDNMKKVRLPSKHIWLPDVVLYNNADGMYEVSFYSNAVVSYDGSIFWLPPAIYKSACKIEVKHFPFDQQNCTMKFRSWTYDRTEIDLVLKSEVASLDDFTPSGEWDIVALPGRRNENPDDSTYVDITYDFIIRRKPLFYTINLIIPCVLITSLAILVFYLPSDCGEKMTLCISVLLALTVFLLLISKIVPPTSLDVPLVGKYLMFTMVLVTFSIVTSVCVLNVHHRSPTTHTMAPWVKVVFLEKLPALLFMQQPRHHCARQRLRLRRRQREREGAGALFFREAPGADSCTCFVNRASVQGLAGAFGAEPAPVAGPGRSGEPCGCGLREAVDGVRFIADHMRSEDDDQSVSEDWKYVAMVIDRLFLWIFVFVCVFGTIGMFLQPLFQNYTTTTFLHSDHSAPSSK
# ETA = molecular target: T3, ETA (Homo sapiens, UniProt P25101); experiment: SafetyOne44 panel: ETA; assay type: cell-based; conditions: ETA, 10 μmol/L
# T3 construct: purchased ICE Bioscience ICESTP™ SafetyOne44 Panel
# T3 sequence (P25101 21-427): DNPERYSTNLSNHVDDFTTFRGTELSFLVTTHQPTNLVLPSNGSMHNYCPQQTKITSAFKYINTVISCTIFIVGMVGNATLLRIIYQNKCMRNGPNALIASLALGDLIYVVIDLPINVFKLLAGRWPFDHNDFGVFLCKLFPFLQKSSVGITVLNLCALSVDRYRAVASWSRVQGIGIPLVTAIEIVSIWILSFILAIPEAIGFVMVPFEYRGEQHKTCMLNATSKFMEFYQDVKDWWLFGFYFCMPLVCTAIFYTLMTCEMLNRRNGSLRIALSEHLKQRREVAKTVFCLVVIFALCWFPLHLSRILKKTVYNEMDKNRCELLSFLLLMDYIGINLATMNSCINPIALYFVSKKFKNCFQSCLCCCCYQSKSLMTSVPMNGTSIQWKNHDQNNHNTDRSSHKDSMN
# CCK1 = molecular target: T4, CCK1 (Homo sapiens, UniProt P32238); experiment: SafetyOne44 panel: CCK1; assay type: cell-based; conditions: 10 μmol/L
# T4 construct: purchased ICE Bioscience ICESTP™ SafetyOne44 Panel
# T4 sequence (P32238 1-428): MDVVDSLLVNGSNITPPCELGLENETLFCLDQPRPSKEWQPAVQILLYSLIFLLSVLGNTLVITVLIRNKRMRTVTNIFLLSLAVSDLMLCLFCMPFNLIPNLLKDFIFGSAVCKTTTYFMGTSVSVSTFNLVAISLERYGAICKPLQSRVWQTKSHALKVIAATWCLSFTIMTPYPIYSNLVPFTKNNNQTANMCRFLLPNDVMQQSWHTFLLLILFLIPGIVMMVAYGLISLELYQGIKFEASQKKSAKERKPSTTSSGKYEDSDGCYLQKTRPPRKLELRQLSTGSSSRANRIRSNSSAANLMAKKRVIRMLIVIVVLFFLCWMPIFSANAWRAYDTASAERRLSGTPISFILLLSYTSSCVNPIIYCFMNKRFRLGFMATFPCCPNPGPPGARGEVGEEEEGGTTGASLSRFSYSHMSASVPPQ
# D2 = molecular target: T5, D2 (Homo sapiens, UniProt P14416); experiment: cell-based; assay type: cell-based
# T5 construct: purchased ICE Bioscience ICESTP™ SafetyOne44 Panel
# T5 sequence (P14416 whole entry): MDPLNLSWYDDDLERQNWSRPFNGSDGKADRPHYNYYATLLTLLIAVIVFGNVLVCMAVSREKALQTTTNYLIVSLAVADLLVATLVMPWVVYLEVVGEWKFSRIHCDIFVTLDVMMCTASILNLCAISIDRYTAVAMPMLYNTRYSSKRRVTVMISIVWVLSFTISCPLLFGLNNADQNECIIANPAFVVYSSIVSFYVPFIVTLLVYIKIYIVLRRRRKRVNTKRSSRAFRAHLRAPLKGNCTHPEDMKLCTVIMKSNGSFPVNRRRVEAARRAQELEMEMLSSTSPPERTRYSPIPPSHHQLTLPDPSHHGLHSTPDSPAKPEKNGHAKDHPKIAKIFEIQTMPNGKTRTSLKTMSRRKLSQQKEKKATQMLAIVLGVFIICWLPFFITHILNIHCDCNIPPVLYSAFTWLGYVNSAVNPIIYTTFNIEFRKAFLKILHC
# α1A = α1A (Homo sapiens, UniProt P35348); experiment: cell-based; assay type: cell-based
# Chain of α1A (P35348 whole entry): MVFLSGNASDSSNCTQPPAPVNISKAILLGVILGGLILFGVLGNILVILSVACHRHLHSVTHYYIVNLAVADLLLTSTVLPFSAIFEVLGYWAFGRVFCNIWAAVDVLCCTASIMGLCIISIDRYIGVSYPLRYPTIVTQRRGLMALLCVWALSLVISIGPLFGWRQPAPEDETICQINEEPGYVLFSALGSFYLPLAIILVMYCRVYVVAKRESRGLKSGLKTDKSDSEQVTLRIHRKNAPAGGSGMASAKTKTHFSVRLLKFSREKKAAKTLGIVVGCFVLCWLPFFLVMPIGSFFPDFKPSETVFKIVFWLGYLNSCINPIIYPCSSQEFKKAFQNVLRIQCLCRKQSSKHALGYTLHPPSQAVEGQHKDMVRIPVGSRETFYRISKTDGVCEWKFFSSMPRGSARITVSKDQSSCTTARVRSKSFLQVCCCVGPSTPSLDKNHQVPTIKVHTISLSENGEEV
# TRPC6 = TRPC6 (Homo sapiens, UniProt Q9Y210); experiment: Patch-clamp selectivity, TRPC6; assay type: cell-based; conditions: 1 μmol/L
# H1 = H1 (Homo sapiens, UniProt P35367); conditions: H1, agonist mode
# TRPC5 Q573A = molecular target: T6, TRPC5 Q573A (Homo sapiens, UniProt Q9UL62, Q573A); experiment: Inhibition of TRPC5 mutant Q573A; assay type: cell-based; conditions: TRPC5 Q573A vs wild type
# T6 construct: full-length wild-type or mutant TRPC5 was cloned into a pcDNA3.1 vector; expressed in transfected cells; host or cells: HEK293T
# MAO A = molecular target: T7, MAO A (Homo sapiens, UniProt P21397); experiment: SafetyOne44 panel: MAO A; assay type: biochemical; conditions: 10 μmol/L, read-out: Antagonist JDIC-127 @10 μmol/L
# T7 construct: purchased ICE Bioscience ICESTP™ SafetyOne44 Panel
# V1a = V1a (Homo sapiens, UniProt P37288); conditions: agonist mode
# Chain of V1a (P37288 whole entry): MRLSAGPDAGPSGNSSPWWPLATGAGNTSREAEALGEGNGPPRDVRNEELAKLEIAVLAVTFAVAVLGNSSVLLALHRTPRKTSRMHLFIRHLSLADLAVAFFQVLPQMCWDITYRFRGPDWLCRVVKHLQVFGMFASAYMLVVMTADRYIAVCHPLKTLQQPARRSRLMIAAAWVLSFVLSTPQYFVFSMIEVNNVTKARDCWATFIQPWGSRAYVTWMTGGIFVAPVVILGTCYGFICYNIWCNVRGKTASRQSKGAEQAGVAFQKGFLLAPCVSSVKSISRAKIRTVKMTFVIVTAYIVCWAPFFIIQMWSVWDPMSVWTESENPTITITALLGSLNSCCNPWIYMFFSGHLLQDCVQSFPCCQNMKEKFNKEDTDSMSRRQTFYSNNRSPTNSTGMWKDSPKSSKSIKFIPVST
# C57BL/6J mice = experiment: m-CPP-induced anxiety model, marble burying test; assay type: in vivo; conditions: p.o.
# TRPC5 F576A = molecular target: T8, TRPC5 F576A (Homo sapiens, UniProt Q9UL62, F576A); experiment: Inhibition of TRPC5 mutant F576A; assay type: cell-based; conditions: TRPC5 F576A vs wild type
# T8 construct: full-length wild-type or mutant TRPC5 was cloned into a pcDNA3.1 vector; expressed in transfected cells; host or cells: HEK293T
# H2 = molecular target: T9, H2 (Homo sapiens, UniProt P25021); experiment: SafetyOne44 panel: H2; assay type: cell-based; conditions: 10 μmol/L
# T9 construct: purchased ICE Bioscience ICESTP™ SafetyOne44 Panel
# T9 sequence (P25021 whole entry): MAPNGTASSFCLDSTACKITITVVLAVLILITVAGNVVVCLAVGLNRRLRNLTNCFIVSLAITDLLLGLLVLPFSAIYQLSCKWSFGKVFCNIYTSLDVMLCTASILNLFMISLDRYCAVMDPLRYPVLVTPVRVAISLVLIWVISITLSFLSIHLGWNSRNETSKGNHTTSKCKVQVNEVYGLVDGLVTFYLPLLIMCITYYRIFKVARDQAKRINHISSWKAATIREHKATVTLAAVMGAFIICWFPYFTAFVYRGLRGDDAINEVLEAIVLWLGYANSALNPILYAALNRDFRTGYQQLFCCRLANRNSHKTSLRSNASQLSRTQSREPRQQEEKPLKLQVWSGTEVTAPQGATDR
# GABAA = assay type: cell-based
# Cav1.2 = molecular target: T10, Cav1.2 (Homo sapiens, UniProt Q13936); assay type: cell-based; conditions: Cav1.2, 5 μmol/L
# T10 construct: ICE Bioscience ICESTP SafetyOne44 Panel
# COX2 = COX2 (Homo sapiens, UniProt P35354); experiment: biochemical; conditions: read-out: Antagonist JDIC-127 @10 μmol/L
# PDE4 D2 = molecular target: T11, PDE4 D2 (Homo sapiens, UniProt Q08499); experiment: biochemical; conditions: PDE4D2, 10 μmol/L; read-out: Antagonist JDIC-127 @10 μmol/L
# T11 construct: purchased ICE Bioscience ICESTP™ SafetyOne44 Panel
# T11 sequence (Q08499 303-809 limits assumed): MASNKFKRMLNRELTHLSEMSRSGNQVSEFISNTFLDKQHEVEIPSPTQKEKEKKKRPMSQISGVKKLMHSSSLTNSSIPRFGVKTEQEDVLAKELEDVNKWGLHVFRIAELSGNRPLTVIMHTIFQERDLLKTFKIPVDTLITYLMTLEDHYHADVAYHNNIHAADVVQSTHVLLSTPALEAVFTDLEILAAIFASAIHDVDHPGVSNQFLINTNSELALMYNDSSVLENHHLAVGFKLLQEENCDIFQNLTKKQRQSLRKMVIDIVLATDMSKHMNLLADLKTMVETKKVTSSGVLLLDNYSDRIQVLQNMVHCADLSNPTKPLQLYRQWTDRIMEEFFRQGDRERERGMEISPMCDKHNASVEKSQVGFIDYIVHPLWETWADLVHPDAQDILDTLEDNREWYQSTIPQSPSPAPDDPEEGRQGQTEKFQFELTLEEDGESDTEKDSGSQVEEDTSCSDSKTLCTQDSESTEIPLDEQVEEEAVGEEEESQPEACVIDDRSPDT
# PDE3 A = molecular target: T12, PDE3 A (Homo sapiens, UniProt Q14432); experiment: SafetyOne44 panel: PDE3A; assay type: biochemical; conditions: 10 μmol/L, read-out: Antagonist JDIC-127 @10 μmol/L
# T12 construct: purchased ICE Bioscience ICESTP™ SafetyOne44 Panel
# AR = molecular target: T13, AR (Homo sapiens, UniProt P10275); experiment: cell-based; assay type: cell-based
# T13 construct: purchased ICE Bioscience ICESTP™ SafetyOne44 Panel
# T13 sequence (P10275 whole entry): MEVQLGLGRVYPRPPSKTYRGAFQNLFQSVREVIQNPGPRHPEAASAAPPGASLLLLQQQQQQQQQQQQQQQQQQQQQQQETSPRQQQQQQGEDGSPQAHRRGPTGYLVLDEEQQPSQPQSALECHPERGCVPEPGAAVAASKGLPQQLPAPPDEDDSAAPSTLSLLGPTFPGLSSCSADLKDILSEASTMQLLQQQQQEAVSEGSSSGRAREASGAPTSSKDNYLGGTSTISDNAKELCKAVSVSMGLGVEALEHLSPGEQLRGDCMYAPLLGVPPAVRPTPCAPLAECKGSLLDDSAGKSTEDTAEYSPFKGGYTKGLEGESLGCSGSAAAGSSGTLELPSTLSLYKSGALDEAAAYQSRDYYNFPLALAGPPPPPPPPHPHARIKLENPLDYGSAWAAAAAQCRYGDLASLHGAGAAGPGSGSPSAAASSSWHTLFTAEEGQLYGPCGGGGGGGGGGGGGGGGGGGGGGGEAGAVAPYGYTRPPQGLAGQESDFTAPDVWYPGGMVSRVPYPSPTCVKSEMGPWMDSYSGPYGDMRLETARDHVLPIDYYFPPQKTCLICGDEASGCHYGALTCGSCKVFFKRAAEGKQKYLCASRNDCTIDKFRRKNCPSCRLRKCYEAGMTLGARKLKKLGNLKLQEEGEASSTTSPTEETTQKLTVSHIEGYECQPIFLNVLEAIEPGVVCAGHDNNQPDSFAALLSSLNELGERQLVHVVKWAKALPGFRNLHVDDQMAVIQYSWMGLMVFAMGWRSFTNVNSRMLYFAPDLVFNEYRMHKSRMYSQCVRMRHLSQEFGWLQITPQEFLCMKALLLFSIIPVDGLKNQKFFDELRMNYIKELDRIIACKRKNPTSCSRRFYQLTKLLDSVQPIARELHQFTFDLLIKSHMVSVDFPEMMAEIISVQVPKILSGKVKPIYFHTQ
# [1] = antagonist mode, 10 μmol/L, read-out: Antagonist JDIC-127 @10 μmol/L
# T1 sequence (P28223 whole entry): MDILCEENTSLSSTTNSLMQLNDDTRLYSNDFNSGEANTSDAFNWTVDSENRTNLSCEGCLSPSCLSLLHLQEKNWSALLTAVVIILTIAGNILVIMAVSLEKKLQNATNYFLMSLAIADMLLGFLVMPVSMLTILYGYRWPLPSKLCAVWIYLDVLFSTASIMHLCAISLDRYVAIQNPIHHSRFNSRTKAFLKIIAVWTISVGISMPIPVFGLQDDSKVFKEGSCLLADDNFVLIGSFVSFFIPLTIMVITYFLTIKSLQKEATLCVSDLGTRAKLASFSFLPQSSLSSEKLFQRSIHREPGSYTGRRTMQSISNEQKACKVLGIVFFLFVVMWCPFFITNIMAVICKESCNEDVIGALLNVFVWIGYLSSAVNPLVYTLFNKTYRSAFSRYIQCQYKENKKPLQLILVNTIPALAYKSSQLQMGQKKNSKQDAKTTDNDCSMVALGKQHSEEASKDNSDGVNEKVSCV
smiles,measurement,setting,value
O=c1c2c3nc(n2Cc2ccc(Cl)cc2)Oc2ccc(F)c(c2)OCCCCCCn3c(=O)n1CCCO [JDIC-127],Agonist JDIC-127 @10 μmol/L,5-HT2A; agonist mode,3.92%
same,inhibition at 10 µM,5-HT2A; [1],5.24%
same,Agonist JDIC-127 @ 5 μmol/L,"nAChRα4β2; nAChRα4β2, agonist mode",0.97%
same,Antagonist JDIC-127 @5 μmol/L,"nAChRα4β2; nAChRα4β2, antagonist mode",2.92%
same,Agonist JDIC-127 @10 μmol/L,ETA; agonist mode,1.45%
same,inhibition at 10 µM,"ETA; antagonist mode, read-out: Antagonist JDIC-127 @10 μmol/L",2.63%
same,Agonist JDIC-127 @10 μmol/L,"CCK1; CCK1, agonist mode",–3.36%
same,inhibition at 10 µM,"CCK1; CCK1, antagonist mode, read-out: Antagonist JDIC-127 @10 μmol/L",6.16%
same,Agonist JDIC-127 @10 μmol/L,"D2; D2, agonist mode",–9.18%
same,inhibition at 10 µM,"D2; D2, antagonist mode, 10 μmol/L, read-out: Antagonist JDIC-127 @10 μmol/L",-1.55%
same,Agonist JDIC-127 @10 μmol/L,α1A; agonist mode,0.76%
same,inhibition at 10 µM,α1A; [1],-3.05%
same,inhibition at 1 µM,TRPC6,< 20%
same,Agonist JDIC-127 @10 μmol/L,H1,3.21%
same,effect of mutation on inhibitory potency of JDIC-127,TRPC5 Q573A,significantly diminished
same,inhibition at 10 µM,MAO A,15.5%
same,Agonist JDIC-127 @10 μmol/L,V1a,–7.01%
same,"number of buried marbles, MBT",C57BL/6J mice,reduced
same,effect of mutation on inhibitory potency of JDIC-127,TRPC5 F576A,significantly diminished
same,Agonist JDIC-127 @10 μmol/L,"H2; H2, agonist mode",–6.71%
same,inhibition at 10 µM,"H2; H2, antagonist mode, read-out: Antagonist JDIC-127 @10 μmol/L",5.6%
same,Agonist JDIC-127 @ 5 μmol/L,GABAA; agonist mode,0.74%
same,Antagonist JDIC-127 @5 μmol/L,GABAA; antagonist mode,26.35%
same,Antagonist JDIC-127 @5 μmol/L,Cav1.2,20.23%
same,inhibition at 10 µM,COX2,1.38%
same,Cbr,"i.v., 2 mg/kg, 2 min",407.01 nmol/kg
same,Cpl,"i.v., 2 mg/kg, 2 min",367.10 nmol/L
same,Cbr,"i.v., 2 mg/kg, 45 min",198.65 nmol/kg
same,Cpl,"i.v., 2 mg/kg, 45 min",51.63 nmol/L
same,Cbr,"i.v., 2 mg/kg, 180 min",74.96 nmol/kg
same,Cpl,"i.v., 2 mg/kg, 180 min",10.12 nmol/L
same,Cbr,"p.o., 10 mg/kg, 2 min",22.16 nmol/kg
same,Cpl,"p.o., 10 mg/kg, 2 min",6.36 nmol/L
same,Cbr,"p.o., 10 mg/kg, 45 min",223.33 nmol/kg
same,Cpl,"p.o., 10 mg/kg, 45 min",88.83 nmol/L
same,Cbr,"p.o., 10 mg/kg, 180 min",7.35 nmol/kg
same,Cpl,"p.o., 10 mg/kg, 180 min",22.96 nmol/L
same,inhibition at 10 µM,PDE4 D2,11.4%
same,inhibition at 10 µM,PDE3 A,2.27%
same,Agonist JDIC-127 @10 μmol/L,AR; agonist mode,0.06%
same,inhibition at 10 µM,AR; [1],-7.02%
